Reference: patent US20020077296A1, “High-throughput screening method” (priority 2000, published 2002)
Read-outs that look alike come from different tables or passages of the source. Blank lines part the entries; values can stand above or below the molecule they belong to.

How the values were obtained:
ROKa/ROK-II, active Cat = target: T1, ROKa/ROK-II, active Cat (Rattus norvegicus, UniProt Q62868); assay: phosphorylation assay with ROKa/ROK-II, active Cat (Upstate) under a similar condition; type: biochemical
T1 construct: purchased Upstate
Description: (§1) ATP/30 μl. […] The reaction time was four hours.
(§2) SPA Multiscreen method was used for the estimation of the plate.

Rho-kinase [1] = target: T2, Rho-kinase (Bos taurus, UniProt Q28021); assay: antibody plate assay: Rho-kinase immobilized from bovine brain extract, phosphorylation of Histone HF2A; type: biochemical; conditions: Histone HF2A substrate, [33P]ATP, reaction time four hours
T2 construct: thus detecting the band of Rho-kinase at around 160 kDa; tissue Shiraimatsu; host or cells: bovine brain (cerebral gray matter) extract
Description: After allowed to stand for 1.5 hours at room temperature, the solution was removed, and 200 μl of blocking solution in which Block Ace (DAINIPPON PHARMACEUTICAL) UK-B25 was diluted four times with PBS(−)) was added into the plate, followed by stirring the solution therein. The plate was allowed to stand for additional 1.5 hours at room temperature, washed three times with 200 μl of PBST (0.05% Tween20/PBS(−)), and added with a 0.1 μg/50 μl solution of anti-Rho-kinase antibody in PBS(−).
as §1, §2
The inhibitory activity of these inhibitors was determined based on the radioactivity showing the phosphorylation that was detected in the antibody plate assay system, and compared to those previously reported, so that the plate was estimated in terms of the usefulness in a screening system for discovering inhibitors.

Rho-kinase [2] = conditions: read-out: Ki value; cited from earlier work
Rho-kinase [3] = assay: inhibition of the binding of Rho-kinase to anti-Rho-kinase antibody-immobilized plate; set-up: species or system bovine
Description: Fifty μl of the dilution of the rabbit anti-goat IgG/Fc (Nippon Chemi-Con Corp.) in PBS(−) was pipetted into Immunoplate II (Nunc, 442404, High binding capacity) or a fluorescence/luminescence solid assay plate (COSTAR, 3922 white). After allowed to stand for 1.5 hours at room temperature, the solution was removed, and 200 μl of blocking solution in which Block Ace (DAINIPPON PHARMACEUTICAL) UK-B25 was diluted four times with PBS(−)) was added into the plate, followed by stirring the solution therein. The plate was allowed to stand for additional 1.5 hours at room temperature, washed three times with 200 μl of PBST (0.05% Tween20/PBS(−)), and added with a 0.1 μg/50 μl solution of anti-Rho-kinase antibody in PBS(−). After allowed to stand for additional 1.5 hours at room temperature, the plate was washed three times with 200 μl of PBST. Into the plate was placed 50 μl of 1.5 mg/ml bovine brain lysates, and the resultant plate was allowed to stand overnight at 4° C. This was washed twice with 200 μl of PBST, and once with 200 μl of PBS(−) to provide an immobilized plate.
Various concentrations of the antigen peptide used to prepare the anti-Rho-kinase antibody were supplemented to the bovine brain extract, and then Rho-kinase in the extract was immobilized onto the plate under the optimal conditions as found in Example 5. […]

T1 sequence (Q62868 11-552 limits assumed): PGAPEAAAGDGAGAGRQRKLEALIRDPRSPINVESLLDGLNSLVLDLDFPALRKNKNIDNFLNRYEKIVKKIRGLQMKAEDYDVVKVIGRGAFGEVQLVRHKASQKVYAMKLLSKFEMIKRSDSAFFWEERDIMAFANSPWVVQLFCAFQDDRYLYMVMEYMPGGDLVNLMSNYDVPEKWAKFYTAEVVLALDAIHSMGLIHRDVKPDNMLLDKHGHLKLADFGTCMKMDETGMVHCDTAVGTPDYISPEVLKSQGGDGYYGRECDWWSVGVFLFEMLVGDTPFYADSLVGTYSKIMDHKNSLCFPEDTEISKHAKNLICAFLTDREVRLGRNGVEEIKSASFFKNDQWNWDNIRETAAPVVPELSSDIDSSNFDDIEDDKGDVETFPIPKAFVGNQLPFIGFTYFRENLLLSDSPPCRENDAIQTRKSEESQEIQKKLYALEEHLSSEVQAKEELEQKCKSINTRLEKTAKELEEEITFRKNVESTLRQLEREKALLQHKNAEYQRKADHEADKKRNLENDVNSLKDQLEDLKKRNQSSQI
T2 sequence (Q28021 whole entry): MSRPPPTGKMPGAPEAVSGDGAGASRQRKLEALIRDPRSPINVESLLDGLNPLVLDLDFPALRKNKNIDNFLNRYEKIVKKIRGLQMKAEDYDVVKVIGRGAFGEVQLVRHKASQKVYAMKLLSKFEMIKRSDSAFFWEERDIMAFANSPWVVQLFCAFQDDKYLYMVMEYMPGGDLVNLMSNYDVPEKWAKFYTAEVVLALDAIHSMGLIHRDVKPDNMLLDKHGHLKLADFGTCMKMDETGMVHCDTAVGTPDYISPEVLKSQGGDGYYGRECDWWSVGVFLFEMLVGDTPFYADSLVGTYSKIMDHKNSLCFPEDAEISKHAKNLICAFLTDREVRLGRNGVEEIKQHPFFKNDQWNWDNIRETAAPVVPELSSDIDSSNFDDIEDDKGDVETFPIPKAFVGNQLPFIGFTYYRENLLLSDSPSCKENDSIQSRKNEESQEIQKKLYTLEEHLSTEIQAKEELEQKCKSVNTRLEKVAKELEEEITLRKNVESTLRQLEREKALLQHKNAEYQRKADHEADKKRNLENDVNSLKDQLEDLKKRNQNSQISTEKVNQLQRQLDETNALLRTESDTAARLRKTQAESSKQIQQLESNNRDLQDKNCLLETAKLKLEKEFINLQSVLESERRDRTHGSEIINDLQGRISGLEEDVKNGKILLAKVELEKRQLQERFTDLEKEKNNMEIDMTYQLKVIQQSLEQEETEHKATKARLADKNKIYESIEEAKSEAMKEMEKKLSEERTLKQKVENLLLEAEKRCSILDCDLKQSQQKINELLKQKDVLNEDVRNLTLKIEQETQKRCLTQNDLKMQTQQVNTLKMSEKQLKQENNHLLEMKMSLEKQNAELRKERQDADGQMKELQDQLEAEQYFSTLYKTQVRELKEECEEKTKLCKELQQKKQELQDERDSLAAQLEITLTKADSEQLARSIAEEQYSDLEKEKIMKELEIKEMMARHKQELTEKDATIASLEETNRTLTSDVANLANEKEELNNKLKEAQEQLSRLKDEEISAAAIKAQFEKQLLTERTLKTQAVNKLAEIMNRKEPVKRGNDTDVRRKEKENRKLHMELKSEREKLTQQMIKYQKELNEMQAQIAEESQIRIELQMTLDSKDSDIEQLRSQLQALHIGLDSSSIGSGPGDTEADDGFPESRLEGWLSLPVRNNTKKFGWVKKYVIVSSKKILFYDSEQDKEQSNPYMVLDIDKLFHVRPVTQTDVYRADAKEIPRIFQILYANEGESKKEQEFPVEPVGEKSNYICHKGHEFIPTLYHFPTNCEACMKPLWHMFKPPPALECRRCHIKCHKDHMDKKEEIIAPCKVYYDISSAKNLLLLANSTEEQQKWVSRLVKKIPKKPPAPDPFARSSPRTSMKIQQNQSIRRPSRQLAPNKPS

Molecule: C[C@@H](N)[C@H]1CC[C@H](C(=O)Nc2ccncc2)CC1 [Y-27632]
IC50 (ROKa/ROK-II, active Cat): 790 nM
IC50 (Rho-kinase [1]; IC50 value, bovine brain): 350 nM
Ki (Rho-kinase [2]): 140 nM

inhibition of the immobilization of Rho-kinase (Rho-kinase [3]; 3.5 μM of the peptide): ~100%
IC50 (Rho-kinase [3]; peptide supplemented to bovine brain extract, read-out: IC50 value, inhibition of immobilization of Rho-kinase): 350 nM
Molecule: IQQNQSIRRPSRQLAPNKPS [antigen peptide, 20 amino acid C-terminal partial peptide of Rho-kinase used to prepare the anti-Rho-kinase antibody]

IC50 (ROKa/ROK-II, active Cat; similar assay condition, read-out: IC50 value, ROKa/ROK-II active Cat): 11000 nM
IC50 (Rho-kinase [1]; read-out: IC50 value, bovine brain): 20000 nM
Molecule: COc1ccc2c(c[n+](C)c3c4cc5c(cc4ccc23)OCO5)c1OC [chelerythrine]
